Here are results for one molecule from patent US20100312073A1, “METHOD OF […] […]” (priority 2008, published 2010).

Read-outs that look alike come from different tables or passages of the source.

The assay has as its system DNIC efficiency (diffuse noxious inhibitory control). Conditions: 60 mg once a day for one week, healthy volunteers.

Source text: According to an exemplary testing procedure, the DNIC can be assessed as the difference of pain ratings to ‘test stimulus’ applied before and during the immersion of the contralateral hand into hot water bath (conditioning stimulus) as elaborated infra. Exemplary test stimulus of a 30 seconds period with contact heat, such as 30×30 mm^2 thermode TSA-2001 available from Medoc, can be delivered for instance on the non-dominant forearm at the individually-predetermined temperature that evoked pain intensity of 60 on a 0-100 NPS (more details in Granot et al., 2006). The stimulus temperature can be raised by 2° C./sec from 32° C. to the destination temperature. Fifteen minutes after the completion the first pre-immersion test, the patient is asked to immerse his/her dominant hand for 1′ into the water bath of 46.5° C. (Neto Cooling Bath CBN 8-30, Allerod, Denemark), while second application of the ‘test stimulus’ is repeated during last 30 seconds of immersion. […]
DNIC paradigm, tested at baseline and after each of the treatments, consisted of administration of two painful stimuli, a test-pain delivered by contact heat, and a ‘conditioning’ pain induced by hot water immersion of the other hand. The DNIC efficiency was calculated as the difference between pain perceptions induced by the test-pain when given alone, and when given concomitantly with the conditioning one.

As for `CNCC[C@H](Oc1cccc2ccccc12)c1cccs1` [Duloxetine], the “Duloxetine treatment DNIC score” value came out at 29.26 (high pre-treatment DNIC group (pre-treatment DNIC score 32.50), NS vs. pre-treatment) and 19.35 (low pre-treatment DNIC group (pre-treatment DNIC score 0.15), P<0.05 vs. pre-treatment (Tukey)).
